In ChEMBL document CHEMBL1201862, “PubChem BioAssay data set” (2004):
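The compound was tested at five concentrations on cells cultured in 96-well plates, with a 48-hour exposure period. Here, GI50 denotes the concentration required for 50% inhibition of growth.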 The source made the active and inactive calls. Cut-off read from the data, not from the text of the source: active = GI50 up to about 1.1 µM and inactive = higher.

Legend:
Test in all cases: NCI anticancer screen, dose series, 48 h
786-0 = test system: 786-0
UACC-257 = test system: UACC-257
MCF7 = test system: MCF7
CCRF-CEM = test system: CCRF-CEM
MOLT-4 = test system: MOLT-4
UO-31 = test system: UO-31
SF-539 = test system: SF-539
SW-620 = test system: SW-620
A498 = test system: A498
SK-OV-3 = test system: SK-OV-3
KM12 = test system: KM12
SK-MEL-5 = test system: SK-MEL-5
A549 = test system: A549
SR = test system: SR
MDA-N = test system: MDA-N
SNB-75 = test system: SNB-75
SF-295 = test system: SF-295
RPMI-8226 = test system: RPMI-8226

Compound	GI50 (786-0)	GI50 (UACC-257)	GI50 (MCF7)	GI50 (CCRF-CEM)	GI50 (MOLT-4)	GI50 (UO-31)	GI50 (SF-539)	GI50 (SW-620)	GI50 (A498)	GI50 (SK-OV-3)	GI50 (KM12)	GI50 (SK-MEL-5)	GI50 (A549)	GI50 (SR)	GI50 (MDA-N)	GI50 (SNB-75)	GI50 (SF-295)	GI50 (RPMI-8226)
CCn1c(=O)c2c3ccc(OC)cc3[nH]c2c2ccc(OC)cc21	0.0426 µM (active)	71.3 µM (inactive)	50.1 µM (inactive)	29.2 µM (inactive)	22.6 µM (inactive)	47.9 µM (inactive)	52.5 µM (inactive)	57.3 µM (inactive)	67.6 µM (inactive)	80.7 µM (inactive)	8.18 µM (inactive)	37.2 µM (inactive)	59.7 µM (inactive)	70.5 µM (inactive)	62.8 µM (inactive)	19.8 µM (inactive)	67.1 µM (inactive)	–
Cc1ccc2c3c(cnc2n1)C(=O)OCCN3C	> 100 µM (inactive)	> 100 µM (inactive)	> 100 µM (inactive)	> 100 µM (inactive)	> 100 µM (inactive)	> 100 µM (inactive)	> 100 µM (inactive)	> 100 µM (inactive)	> 100 µM (inactive)	–	> 100 µM (inactive)	> 100 µM (inactive)	> 100 µM (inactive)	> 100 µM (inactive)	> 100 µM (inactive)	–	> 100 µM (inactive)	–
O=C(O)c1ccccc1/N=N/c1c(O)c(S(=O)(=O)O)cc2cc(S(=O)(=O)O)ccc12	> 100 µM (inactive)	> 100 µM (inactive)	> 100 µM (inactive)	> 100 µM (inactive)	> 100 µM (inactive)	> 100 µM (inactive)	> 100 µM (inactive)	> 100 µM (inactive)	> 100 µM (inactive)	> 100 µM (inactive)	84.3 µM (inactive)	> 100 µM (inactive)	> 100 µM (inactive)	> 100 µM (inactive)	> 100 µM (inactive)	> 100 µM (inactive)	> 100 µM (inactive)	–
CC(C)(C)C(=O)Oc1ccc(/C=C/C(=O)c2ccc(OC(=O)C(C)(C)C)cc2)cc1	36.7 µM (inactive)	60.5 µM (inactive)	46.5 µM (inactive)	6.53 µM (inactive)	24.4 µM (inactive)	–	33 µM (inactive)	> 100 µM (inactive)	81.5 µM (inactive)	> 100 µM (inactive)	16.6 µM (inactive)	> 100 µM (inactive)	67.6 µM (inactive)	20.7 µM (inactive)	39.1 µM (inactive)	64.9 µM (inactive)	93.3 µM (inactive)	–
COc1ccc(N2C(=O)C3c4[nH]c5ccc(C)cc5c4C4CCC(C(C)(C)C)CC4C3C2=O)cc1 (stereo not drawn)	20.4 µM (inactive)	23.8 µM (inactive)	33 µM (inactive)	4.84 µM (inactive)	12.9 µM (inactive)	17.2 µM (inactive)	15.6 µM (inactive)	5.58 µM (inactive)	–	12.4 µM (inactive)	32.8 µM (inactive)	20.7 µM (inactive)	6.9 µM (inactive)	11.6 µM (inactive)	> 10 µM (inactive)	2.96 µM (inactive)	5.48 µM (inactive)	11.2 µM (inactive)
COc1ccc(C2=Nn3c(nnc3-c3ccccc3)S/C2=C\c2ccc(-c3ccc([N+](=O)[O-])cc3)o2)cc1	24.9 µM (inactive)	44.7 µM (inactive)	15.1 µM (inactive)	5.7 µM (inactive)	11.3 µM (inactive)	36.4 µM (inactive)	–	24.2 µM (inactive)	58.6 µM (inactive)	34.4 µM (inactive)	23.2 µM (inactive)	27.6 µM (inactive)	36.7 µM (inactive)	9.62 µM (inactive)	7.6 µM (inactive)	–	26.5 µM (inactive)	13.1 µM (inactive)
